# Reference: US20100099640A1, “TISSUE DEGENERATION PROTECTION” (priority 2007, published 2010)
# Columns and labels:
# healthy subjects = test: Stevioside 250 mg capsules thrice daily in healthy subjects; type: in vivo, human; details: 10 healthy subjects
# From the text: The present invention relates to the diterpenoic tetrahydropyran, steviol-19-glucuronide (a natural metabolite of stevioside) and other diterpenoic tetrahydropyran derivatives. […] However, oral administration of stevioside results in the surprising finding that it increases the expression and activity of PPARs, and that it exerts system biological effects to normalise lipid metabolism and to inhibit the formation atherosclerotic cardiovascular disease.
# [1] = Analysis of steviol metabolites in 24 h human urine after oral stevioside; type: in vivo
# Method: Urine Fractionation and Derivatisation of steviol containing fractions. The total 24 h urine fraction (between 1124 and 2494 mL) form human subject subjected to a steviol treatment (three days of oral stevioside administration (750 mg per day)) was run over an Amberlite XAD-2 column at about 30 mL/min. The column bed volume was 200 mL which is sufficient for the adsorption of all amphipathic molecules in 24 h urine. The columns were then rinsed with 1 L of distilled water and then eluted with 400 mL MeOH:Acetone (50:50, v/v). The eluate was divided into 4 equal fractions and the solvent was evaporated at reduced pressure at 50° C.
# Fractions containing steviol and/or dihydroisosteviol used as internal standard were completely dried; the residues were taken up in dry acetone and derivatized to form the 7-methoxy-coumarinyl esters as described (Minne, V. et al. J. Agr. Food Chem., 2004, 52, 2445-2449). […] After evaporation of the solvent, the residue was dissolved in a known amount of MeOH and HPLC was done using a fluorescence detector (λexc.: 321 nm, λem.: 391 nm) (Minne, V. et al. J. Agr. Food Chem., 2004, 52, 2445-2449). […]
# Isolation of larger amounts of steviol glucuronide. […] Samples of each fraction were analysed by TLC using ethyl acetate:ethanol:water (80:30:20) as solvent and compared with steviol glucuronide as a reference compound. […]
# hypertensive rats = details: direct intravenous injection; cited from earlier work
# diabetic rats = details: blood of diabetic rats; cited from earlier work
# [2] = time points 3 days after administration
smiles,measurement,setting,value
"C=C1C[C@@]23CC[C@H]4C(C)(CCC[C@@]4(C)C(=O)O[C@@H]4O[C@H](CO)C(O)[C@H](O)C4O)[C@@H]2CCC1(OC1O[C@H](CO)C(O)C(O)C1OC1O[C@H](CO)C(O)[C@H](O)C1O)C3 (stereo in doubt) [stevioside, Kaur-16-en-18-oic acid, 13-[(2-O-b-D-glucopyranosyl-b-D-glucopyranosyl)oxy]-, b-D-glucopyranosyl ester, (4a)-]",24-hour urinary volume,healthy subjects,not significantly different
same,"mean blood glucose, control vs stevioside condition",healthy subjects,no significant difference
same,"mean insulin, control vs stevioside condition",healthy subjects,no significant difference
same,urinary excretion of electrolytes,healthy subjects,not significantly different
same,"blood biochemical parameters, control vs stevioside condition",healthy subjects; [2],does not provide significant differences
same,"blood pressure, control vs stevioside condition",healthy subjects; [2],does not provide significant differences
same,free steviol in urine,"[1]; after oral stevioside, human urine",no free steviol can be detected
same,metabolite detected in the collected urine,"[1]; three days of oral stevioside (750 mg per day), 24 h urine",steviol glucuronide was isolated as the only metabolite detected
same,blood pressure,hypertensive rats,blood pressure reduction
same,HDL-cholesterol,diabetic rats,increases
same,serum concentration of LDL cholesterol,diabetic rats,lowers
same,serum concentration of triglycerides,diabetic rats,lowers
